Measured values as given in the supplement of paper PMC13380429.

Legend:
[1] = test system: A549-ACE2 infected with SARS-CoV-2; experiment: cell count relative to DMSO; higher = less toxic; details: 24 h
[2] = test system: Caco-2; experiment: cell viability relative to DMSO; higher = less toxic; details: 72 h
[3] = test system: Calu-3; experiment: as above; details: 72 h
[4] = test system: U2OS; experiment: as above; details: 72 h
[5] = test system: Vero E6; experiment: as above; details: 72 h
[6] = test system: A549-ACE2 infected with SARS-CoV-2; experiment: SARS-CoV-2 infection rate relative to DMSO; higher = more infection; details: 24 h
[7] = test system: A549-ACE2; experiment: drug-induced phospholipidosis relative to tamoxifen; higher = more phospholipidosis
[8] = test system: A549-ACE2 infected with SARS-CoV-2; experiment: morphology score (similarity to uninfected cells); higher = more like uninfected cells; details: 24 h
[9] = test system: Caco-2; experiment: relative viability EC50 (midpoint between 100% and the lowest measured viability); higher = less toxic; details: 72 h
[10] = test system: Calu-3; experiment: as above; details: 72 h
[11] = test system: U2OS; experiment: as above; details: 72 h
[12] = test system: Vero E6; experiment: as above; details: 72 h
[13] = test system: Caco-2; experiment: drug sensitivity score (DSS) for viability; higher = more toxic; extreme values may be limits of the assay; details: 72 h
[14] = test system: Calu-3; experiment: as above; details: 72 h
[15] = test system: U2OS; experiment: as above; details: 72 h
[16] = test system: Vero E6; experiment: as above; details: 72 h
[17] = test system: HepG2; experiment: cell viability relative to DMSO; higher = less toxic; details: 72 h
[18] = test system: HepG2; experiment: relative viability EC50 (midpoint between 100% and the lowest measured viability); higher = less toxic; details: 72 h
[19] = test system: HepG2; experiment: drug sensitivity score (DSS) for viability; higher = more toxic; extreme values may be limits of the assay; details: 72 h

[Cl][Ru-]([Cl])([Cl])[Cl].[Na+].c1ccc2[nH]ncc2c1.c1ccc2[nH]ncc2c1 [NKP-1339]
Details	SARS-CoV-2 infection rate, [6] [%]	cell count, [1] [%]	cell viability, [2] [%]	cell viability, [3] [%]	cell viability, [4] [%]	cell viability, [5] [%]	morphology score, [8]
1 nM	–	–	98.5	96.2	94.2	95.7	–
10 nM	–	–	96.6	91.9	95.9	99.2	–
100 nM	–	–	94.3	93.2	100	98.9	–
0.3 µM	95	98	–	–	–	–	0.32
1000 nM	–	–	89.9	111	98.4	104	–
3 µM	99	103	–	–	–	–	0.06
10 µM	97	100	–	–	–	–	0.14
10000 nM	–	–	85.2	96.1	99.5	103	–
30 µM	91	105	–	–	–	–	0.16

drug-induced phospholipidosis [%], [7]
Details	0.3 µM	0.833333 µM	3.33333 µM	6.66667 µM	10 µM	30 µM
24 h	-0.57	0.18	-2.08	-1.49	-1.44	2.85
48 h	0.31	0.08	-0.84	-0.18	-0.5	1.39
72 h	0.516	-1.21	-0.615	-0.927	0.0701	3.63

Details	drug sensitivity score	relative viability EC50 [µM]
[9]	–	> 10
[10]	–	> 10
[11]	–	> 10
[12]	–	> 10
[13]	0.5	–
[14]	0	–
[15]	0	–
[16]	0	–

CNC(=O)c1cc(Oc2ccc(NC(=O)Nc3ccc(Cl)c(C(F)(F)F)c3)cc2)ccn1 [sorafenib]
Details	SARS-CoV-2 infection rate, [6] [%]	cell count, [1] [%]	cell viability, [2] [%]	cell viability, [3] [%]	cell viability, [4] [%]	cell viability, [5] [%]	cell viability, [17] [%]	morphology score, [8]
1 nM	–	–	95.1	107	98.7	97.4	105	–
10 nM	–	–	93.2	104	99.1	98.9	113	–
0.1 µM	110	97	–	–	–	–	–	-0.27
100 nM	–	–	96.1	109	103	104	99.2	–
0.3 µM	103	101	–	–	–	–	–	-0.32
1 µM	116	92	–	–	–	–	–	-0.4
1000 nM	–	–	99.1	108	111	113	80.5	–
3 µM	103	93	–	–	–	–	–	-0.27
10000 nM	–	–	47.9	82.2	39.7	55.6	12.7	–

drug-induced phospholipidosis [%], [7]
Details	0.3 µM	0.833333 µM	3.33333 µM	6.66667 µM	10 µM	30 µM
24 h	-0.66	-4.32	-10.5	-0.85	-20.6	-18.5
48 h	0.68	-2.57	-3.57	0.31	–	–
72 h	3.23	-1.46	-1.25	-4.18	–	–

Details	drug sensitivity score	relative viability EC50 [µM]
[9]	–	3.04
[10]	–	> 10
[11]	–	3.88
[13]	2.9	–
[14]	0.2	–
[15]	2.6	–
[16]	1.7	–
[18]	–	1.64
[19]	7.9	–

C[C@@H]1C[C@@H]([C@H](O)CC2CC(=O)NC(=O)C2)C(=O)[C@@H](C)C1 [cycloheximide]
[8]
Details	morphology score
0.3 µM	0.91
3 µM	0.69
10 µM	0.52
30 µM	0.48

Details	drug sensitivity score
[14]	7.3
[15]	13.8
[16]	13.8
[19]	14.3

C#C[C@]1(O)CC[C@H]2[C@@H]3CCc4cc(OC5CCCC5)ccc4[C@H]3CC[C@@]21C [quinestrol]
Details	SARS-CoV-2 infection rate, [6] [%]	cell count, [1] [%]	cell viability, [2] [%]	cell viability, [3] [%]	cell viability, [4] [%]	cell viability, [5] [%]	cell viability, [17] [%]	morphology score, [8]
1 nM	–	–	99.4	97.9	102	98.4	92.1	–
10 nM	–	–	92.1	98.6	98.9	104	93.2	–
100 nM	–	–	98.7	99.8	104	100	88.9	–
0.3 µM	103	105	–	–	–	–	–	-0.03
1000 nM	–	–	96.5	91.1	100	104	95.5	–
3 µM	85	110	–	–	–	–	–	0.43
10 µM	41	85	–	–	–	–	–	0.68
10000 nM	–	–	67.8	41	93.8	87.4	76.6	–
30 µM	42	23	–	–	–	–	–	0.01

drug-induced phospholipidosis [%], [7]
Details	0.3 µM	0.833333 µM	3.33333 µM	6.66667 µM	10 µM	30 µM
24 h	11.1	13.7	17.2	16.9	13.9	23.3
48 h	12.2	17.8	21.2	25.8	23.6	37.6
72 h	8.56	16.2	19.1	27.3	29.2	–

Details	drug sensitivity score	relative viability EC50 [µM]
[10]	–	1.98
[11]	–	> 10
[12]	–	> 10
[13]	2	–
[14]	4.7	–
[15]	0	–
[16]	0	–
[18]	–	> 10
[19]	1.3	–

O=c1oc(-c2ccc(C(F)(F)F)cc2)nn1Cc1cc(Cl)ccc1O
Details	SARS-CoV-2 infection rate [%]	cell count [%]	cell viability [%]	morphology score
[1], 0.3 µM	–	101	–	–
[1], 3 µM	–	102	–	–
[1], 10 µM	–	80	–	–
[1], 30 µM	–	65	–	–
[2], 1 nM	–	–	109	–
[2], 10 nM	–	–	94.7	–
[2], 100 nM	–	–	101	–
[2], 1000 nM	–	–	99.2	–
[2], 10000 nM	–	–	92.6	–
[6], 0.3 µM	84	–	–	–
[6], 3 µM	102	–	–	–
[6], 10 µM	99	–	–	–
[6], 30 µM	68	–	–	–
[8], 0.3 µM	–	–	–	0.38
[8], 3 µM	–	–	–	-0.01
[8], 10 µM	–	–	–	0.05
[8], 30 µM	–	–	–	0.43
[17], 1 nM	–	–	105	–
[17], 10 nM	–	–	107	–
[17], 100 nM	–	–	99.7	–
[17], 1000 nM	–	–	99.2	–
[17], 10000 nM	–	–	97.3	–

drug-induced phospholipidosis [%], [7]
Details	0.3 µM	0.833333 µM	3.33333 µM	6.66667 µM	10 µM	30 µM
24 h	-1	-1.2	-2.36	-1.21	0.96	6.42
48 h	3.5	-0.73	0.6	1.96	2.52	8.32
72 h	4.07	0.196	1.24	1.18	2.49	10.1

Details	drug sensitivity score	relative viability EC50 [µM]
[9]	–	> 10
[13]	0	–
[18]	–	> 10
[19]	0	–
